Test results: article PMC11513854, “De novo GTP synthesis is a metabolic vulnerability for the interception of brain metastases” (Cell Reports Medicine, 2024)

Legend:
lung-BMIC line (BT478) = assay: Dose-response assay, PrestoBlue; type: cell-based, human; details: for IC50: Homo sapiens, BT478, 72-h treatment, PrestoBlue, N/A, not applicable, read-out: Lung-BM IC50
Protocol: For preliminary drug screening, drugs were plated at a concentration of 10 μM in a 96-well plate, in triplicate at a density of 1000 cells/well, and incubated at 37°C with a humidified atmosphere of 5% CO2 for three days. Vehicle controls for cell death are used in each functional experiment. Following treatment, PrestoBlue (20 μL, Invitrogen), a resazurin-based cell viability reagent and fluorescence indicator of cell metabolism, was added to each well to estimate proliferation approximately 2 h prior to measuring fluorescence intensity via FLUOstar Omega Fluorescence 556 Microplate reader (BMG LABTECH) at an excitation and emission wavelength of 540 nm and 590 nm, respectively. Results were analyzed using Omega analysis software.
Dose-response assays were conducted using the same protocol apart from drugs being plated using 2-fold serial dilutions (20 μM - 39 nM) as previously described.[66] The half maximal inhibitory concentration (IC50) is determined by plotting percent cell viability by the logarithmic concentration of drug. IC80 concentrations will be used for subsequent functional assays (cell proliferation, sphere formation), as determined by the following formula: ICF=100−F/F^1/H×IC50 where F = fraction of maximal response and H = hill slope.

patient-derived BMICs [1] = assay: Clonogenic sphere formation assay; type: cell-based, human; details: limiting dilution and clonogenic sphere formation assays, IC80
Protocol: To assess tumor sphere forming capacity under clonogenic conditions, neurospheres were dissociated into single cells and plated at a low density of 200 cells/well in low-binding tissue culture-treated 96-well plates in serum-free media as previously described.[14]^,[66]^,[67]^,[68]^,[69] Cells were incubated with drug (IC80) or DMSO control, in triplicate, and incubated at 37°C with a humidified atmosphere of 5% CO2. The number of spheres per well were manually counted seven days later. The results were illustrated and analyzed for significance using GraphPad Prism 8 software.

patient-derived BMICs [2] = assay: Clonogenic secondary sphere formation assay after drug removal; type: cell-based, human; details: IC80 treatment for 72 h, then removal from culture media
patient-derived BMICs [3] = assay: Pre-treatment PDX model, intracranial engraftment of lung-BMICs; type: in vivo, mice; details: vs placebo
Text: We decided to focus primarily on lung-BM for our in vivo experiments because they account for over 50% of all BM cases. […] This phenotype was also recapitulated in a melanoma-BM PDX model (Figures S2A and S2B).
Comparisons were made via a two-tailed unpaired t test and data are presented as mean ± SD from 4 to 5 technical replicates. p value is indicated. (C) Schematic of experimental timeline. […] IVIS, in vivo imaging system. Comparisons were made via a two-tailed unpaired t test and data are presented as mean ± SD from 4 to 5 technical replicates. p value is indicated. […] Comparisons were made via a log rank (Mantel-Cox) test, p value is indicated. (G) Quantification of human cells in mouse brains by flow cytometry at the humane endpoint. […]
All experimental procedures involving animal work has been reviewed and approved by McMaster University Animal Research Ethics Board. […] Mice are monitored weekly for signs of illness until endpoint.
Bioluminescent imaging was performed using an IVIS Spectrum In Vivo Imaging System (PerkinElmer) as per the manufacturer’s instructions. Imaging and quantification of signals is controlled by the analysis software Living Image (Xenogen). […] Regions of interest were quantified by bioluminescent signal (photons per second) using Living Image software for a standardized comparison between images.

[4] = tested on: de novo GTP synthesis pathway; assay: LC-MS metabolomics profiling; type: cell-based, human; details: IC80, 6 h; for GDP and GTP levels: BT478, BT530; for AICAR levels: b56: accumulates in only some conditions
Protocol: Metabolites were extracted with a solution of cold acetonitrile/methanol/water (2:2:1) from the cell pellets and protein precipitation was performed by three cycles of freeze/thawing and sonication. The LC-MS metabolomics analysis was performed as previously described.[75] Briefly, a UHPLC-MS system consisting of an Agilent 6550 qToF coupled to an Agilent 1290 binary pump UHPLC system was used. The source parameters were as follows: Gas temperature, 150 °C at 14 L/min and 45 psig; Sheath gas temperature, 325 °C at 12 L/min; Capillary and nozzle voltages were set to −2.0 kV iFunnel conditions were changed from default to-30 V DC, High pressure funnel drop −100 V and RF voltage of 110 V, low pressure funnel drop −50 V and RF voltage of 60 V. Chromatographic separation was achieved by ion-paired chromatography. In brief, […] of each sample was injected onto Agilent ZORBAX Extend-C18 (150 mm 3 2.1 mm i.d.; 1.8 mm) column using tributylamine (TBA) as an ion paring agent (solvent A: 3% methanol, 97% water 10 mM TBA, 15 mM Acetic acid, solvent B: 100% methanol). The linear gradient employed was as follows: 0–2.5 min 99% A, 2.5–7.5 min decrease to 80% A, 7.5–13 min to 55% B and finally 13–15 min to 99% B and held for 1 min. The column was re-generated for 2 min at 1% B. The flow rate was set to […]. The column temperature was maintained at 25°C. Skyline was used for data processing of metabolites in our library of standards using known retention times and MS/MS spectra. Integrated peak areas for the metabolites was exported for further statistical and metabolite enrichment analysis by using online MetaboAnalyst (https://www.metaboanalyst.ca/).

Structure (SMILES)	IC50 (lung-BMIC line (BT478))	frequency of stemness in BMIC lines (patient-derived BMICs [1])	sphere-forming capability following drug removal (patient-derived BMICs [2])	brain tumor burden (patient-derived BMICs [3]; BMICs pre-treated at IC80, 2 weeks post-injection, IVIS)	survival (patient-derived BMICs [3]; BMICs pre-treated at IC80, intracranial engraftment)	GDP and GTP levels [4]	levels of dihydroorotic acid [4]	AICAR levels [4]	selectivity for BMICs compared to normal brain cells (lung-BMIC line (BT478); BT478, MDA-MB-231 Br, BT673 vs neural stem cells, 72 h)
COc1c(C)c2c(c(O)c1C/C=C(\C)CCC(=O)O)C(=O)OC2 [MPA, Mycophenolic acid]	3.61 µM	significantly reduces the frequency of stemness	do not regain sphere-forming capability	significantly reduced brain tumor burden	survived significantly longer	significantly reduced	did not influence	accumulate	–
COc1c(C)c2c(c(O)c1C/C=C(\C)CCC(=O)OCCN1CCCC1)C(=O)OC2 [Compound 3]	15.3 µM	–	–	–	–	significantly reduced	did not influence	accumulate	retained MPA’s therapeutic window
